The numbers were not newly measured in patent US20170341994A1, “PLANT GROWTH REGULATOR AND A METHOD OF USING THE SAME” (GLUCAN BIOLOGICAL TECHNOLOGY CO., LTD, priority 2016, published 2017), which cites them from elsewhere.

This data set has as its system tumor. The following applies: some studies.

As for β-glucan, the “inhibition of tumor growth” value is listed as “more than 95%”.
